Data published in US6653081B2, “Methods for monitoring antiretroviral therapy and guiding therapeutic decision in the treatment of HIV/AIDS” (ViroLogic, Inc., priority 2000, dated 2003).
Values joined by “and” are separate entries in the source; they are usually repeats but may differ in a detail not shown here. Equal values may be shown once. “Also recorded” adds a separate entry of the source.

Legend:
Y181C/M230L-RTV = experiment: Phenotypic susceptibility assay, Y181C/M230L-RTV; format: cell-based, HIV-1; details: site-directed Y181C + M230L
RTV-014451 = experiment: Phenotypic susceptibility assay, RTV-014451; format: cell-based, HIV; details: patient 014451, week 32; for decrease in susceptibility: K101E, V106M, G190A on 241 backbone
Excerpt: (§1) The resistance test vectors containing a functional luciferase gene cassette were constructed and host cells were transfected with the resistance test vector DNA. The resistant test vectors contained patient-derived reverse transcriptase and protease sequences that were either susceptible or resistant to the antiretroviral agents, such as nucleoside reverse transcriptase inhibitors, (NRTIs) non-nucleoside reverse transcriptase inhibitors […] protease inhibitors. The resistance test vector viral particles produced by transfecting the resistance test vector DNA into host cells, either in the presence or absence of PRIs, were used to infect target host cells grown either in the absence of NRTIs or NNRTIs, or in the presence of increasing concentrations of the drug. The amount of luciferase activity produced in infected target host cells in the presence of varying concentrations of drug was compared to the amount of luciferase produced in infected target host cells in the absence of drug. “Drug resistance” was measured as the amount of drug required to inhibit by 50% the luciferase activity detected in the absence of drug (inhibitory concentration 50%, IC50). The IC50 values were determined by plotting percent drug inhibition vs. log10 drug concentration. Stimulation of viral replication was measured as the percent increase in luciferase activity detected when infection occurs in the presence of drug as compared to in the absence of drug.
(§2) Host cells were seeded in 10-cm-diameter dishes and were transfected several days after plating with resistance test vector plasmid DNA and the envelope expression vector. Transfections were performed using a calcium-phosphate precipitation procedure. The cell culture media containing the DNA precipitate was replaced with fresh medium, from one to 24 hours, after transfection. Cell culture media containing resistance test vector viral particles was harvested one to four days after transfection and was passed through a […] filter before being used to infect target host cells, or being stored at −80° C. HIV capsid protein (p24) levels in the harvested cell culture media were determined by an EIA method as described by the manufacturer (SAIC; Frederick, Md.). Before infection, target cells (293 and 293/T) were plated in cell culture media. Control infections were performed using cell culture media from mock transfections (no DNA) or transfections containing the resistance test vector plasmid DNA without the envelope expression plasmid. One to three or more days after infection, the media was removed and cell lysis buffer (Promega) was added to each well. Cell lysates were assayed for luciferase activity (FIG. 3). The inhibitory effect of the drug was determined using the following equation:
(§3) % luciferase inhibition=1−(RLUluc[drug]÷RLUluc)×100
(§4) where RLUluc [drug] is the Relative Light Unit of luciferase activity in infected cells in the presence of drug, and RLUluc is the Relative Light Unit of luciferase activity in infected cells in the absence of drug. IC50values were obtained from the sigmoidal curves that were generated from the data by plotting the percent inhibition of luciferase activity vs. the log10 drug concentration. The percent luciferase stimulation is the negative of the % inhibition calculated using the formula above.
Resistance test vectors were constructed as described in Example 1 from virus samples obtained from an individual patient at two separate time points separated by a 32-week period. The prior and current treatment regimens are unknown. Isolation of viral RNA and RT/PCR was used to generate patient derived segments (PDS) that comprised viral sequences coding for all of PR and aa […] of RT from […]. The PDS were inserted into an indicator gene viral vector to generate resistance test vectors designated RTV-014459 and RTV-014451. […]

RTV-010829 = experiment: Phenotypic susceptibility assay, RTV-010829; format: cell-based, HIV; details: patient 10829; for decrease in susceptibility: K103N, V245E, I270M
Excerpt: as §1, §2, §3, §4
A resistance test vector was constructed as described in Example 1 from a virus sample obtained from patient 10829. The prior and current treatment regimens are unknown. Isolation of viral RNA and RT/PCR was used to generate a patient derived segment (PDS) that comprised viral sequences coding for all of PR and aa 1-313 of RT. The PDS were inserted into an indicator gene viral vector to generate a resistance test vector designated RTV-010829. RTV-010829 was then tested in a phenotypic assay to determine accurately and quantitatively the level of susceptibility to a panel of anti-retroviral drugs. […]

RTV-010829/270I = experiment: Phenotypic susceptibility assay, RTV-010829/270I; format: cell-based, HIV; details: RTV-010829 with I270M reverted
Excerpt: as §1, §2, §3, §4
A resistance test vector containing all of the mutations present in RTV-010829 except for the V245E mutation (RTV-010829/245V) was constructed and tested using the phenotypic assay described earlier. The results were compared to those determined using the parent RTV-010829. We determined the pattern of phenotypic susceptibility to the NNRTIs, delavirdine, nevirapine and efavirenz, in the reverted vector RTV-010829/245V. […] A resistance test vector containing all of the mutations present in RTV-010829 except for the I270M (RTV-010829/270I) was constructed and tested using the phenotypic assay described earlier. […]

RTV-V245T = experiment: Phenotypic susceptibility assay, RTV-V245T; format: cell-based, HIV-1; details: site-directed V245T alone
Excerpt: as §1, §2, §3, §4
A resistance test vector containing a single mutation, V245T, (RTV-V245T) was constructed and tested in the phenotypic assay described earlier. The results were compared to those determined using a genetically defined resistance test vector that was wild type at position 245. We determined the pattern of phenotypic susceptibility to the NNRTIs, delavirdine, nevirapine and efavirenz, in […].

RTV-1033-3/106V = experiment: Phenotypic susceptibility assay, RTV-1033-3/106V; format: cell-based, HIV; details: RTV-1033-3 with V106A reverted
Excerpt: as §1, §2, §3, §4
(§5) A resistance test vector containing all of the mutations present in RTV-1033-3 except for V106A (RTV-1033-3/106V) was constructed and tested using the phenotypic assay described earlier. The results were compared to those determined using the parent RTV-1033-3. We determined the pattern of phenotypic susceptibility to the NNRTIs, delavirdine, nevirapine and efavirenz, in the reverted vector, RTV-1033-3/106V.

RTV-1033-3/106V/227F = experiment: Phenotypic susceptibility assay, RTV-1033-3/106V/227F; format: cell-based, HIV; details: RTV-1033-3 with V106A and F227L reverted
Excerpt: as §1, §2, §3, §4
as §5, with “and F227L (RTV-1033-3/106V/227F)” for “(RTV-1033-3/106V)”, “RTV-1033-3/106V/227F.” for “RTV-1033-3/106V.”

| Structure (SMILES) | drug-dependent stimulation of viral replication (Y181C/M230L-RTV) | reduction in susceptibility compared to wild type control RTV (Y181C/M230L-RTV) | drug-dependent stimulation of viral replication (RTV-014451) [%] | decrease in susceptibility (RTV-014451) [fold] | drug-dependent stimulation of viral replication (RTV-010829) [%] | decrease in susceptibility (RTV-010829) [fold] | drug-dependent stimulation of viral replication (RTV-010829/270I) [%] | reductions in susceptibility compared to wild type control RTV (RTV-010829/270I) [fold] | drug-dependent stimulation of viral replication (RTV-V245T) | reductions in susceptibility compared to wild type control RTV (RTV-V245T) | drug-dependent stimulation of viral replication (RTV-1033-3/106V) | increase in susceptibility (hyper-susceptibility) compared to wild type control RTV (RTV-1033-3/106V) [fold] | drug-dependent stimulation of viral replication (RTV-1033-3/106V/227F) [%] | reductions in susceptibility compared to wild type control RTV (RTV-1033-3/106V/227F) [fold] | reduction in susceptibility compared to wild type control RTV (RTV-1033-3/106V) |
| --- | --- | --- | --- | --- | --- | --- | --- | --- | --- | --- | --- | --- | --- | --- | --- |
| CC(C)Nc1cccnc1N1CCN(C(=O)c2cc3cc(NS(C)(=O)=O)ccc3[nH]2)CC1 [delavirdine] | no drug-dependent stimulation | > 250 fold | ~90 | 41 | ~100 | > 250 | ~40 | 247 | no drug-dependent stimulation | no reductions; also recorded: no significant reduction | no drug-dependent stimulation | 20 | ~80 | 6 | – |
| O=C1Nc2ccc(Cl)cc2[C@@](C#CC2CC2)(C(F)(F)F)O1 [efavirenz] | no drug-dependent stimulation | 25 fold | ~70 | > 450 | ~80 | > 450 | ~20 | 145 | no drug-dependent stimulation | no reductions; also recorded: no significant reduction | ~20% | – | ~80 | 6 | no reduction |
| Cc1ccnc2c1NC(=O)c1cccnc1N2C1CC1 [nevirapine] | no drug-dependent stimulation | > 600 fold and > 800 fold | ~100 | > 600 | ~100 | > 600 | ~30 | 341 | no drug-dependent stimulation | no reductions; also recorded: no significant reduction | ~40% | – | ~110 | 13 | 9 fold |
